Test results from US10774084B2, “Adenine derivatives and their use as UV-photoprotective agents” (UNIVERZITA PALACKEHO V OLOMOUCI, priority 2015, dated 2020).

How the values were obtained:
Assay type in all cases: cell-based, human
[1] = test system: ROS production; test: UVA-induced ROS production in NHDF (H2DCFDA)
From the text: (§1) Normal human dermal fibroblasts (NHDF) were used as an in vitro model. Cells were isolated from tissue specimens obtained from healthy patients undergoing plastic surgery at the Department of Plastic and Aesthetic Surgery (University Hospital Olomouc). The use of skin tissue was in accordance with the Ethics Committee of the University Hospital and Faculty of Medicine and Dentistry, Palacky University, Olomouc and all patients signed written informed consent. Fibroblasts were used between the 2nd and 4th passage. […]
(§2) Test compounds included 6-(tetrahydrofuran-2-ylmethylamino)-9-(tetrahydrofuran-2-yl)purine and positive control (rosmarinic acid). […] Intensity of UVA radiation was evaluated before each irradiation by UVA-meter. […] After 1 hour (37° C., 5% CO2) cell damage was evaluated by analysis of reactive oxygen species (ROS) production. In parallel, intracellular levels of glutathion (GSH) were measured 4 hours (37° C., 5% CO2) after UVA application.
ROS production was evaluated by 2,7-Dichlorodihydrofluorescein diacetate (H2DCFDA). […] Samples were applied on 96-well plate and fluorescence was measured (488/525 nm) (INFINITE M200, Tecan, Switzerland) after centrifugation (10 000 rpm, 4° C., 10 min). Protein content was analyzed spectrophotometrically by bicinchoninic acid at 562 nm (INFINITE M200, Tecan, Switzerland). […]

[2] = test system: caspase-3 activity; test: UVB-induced caspase-3 activity in NHDF (Ac-DEVD-AMC)
From the text: Normal human dermal fibroblasts (NHDF) were used as an in vitro model. Cells were isolated from tissue specimens obtained from healthy patients undergoing plastic surgery at the Department of Plastic and Aesthetic Surgery (University Hospital Olomouc). The use of skin tissue was in accordance with the Ethics Committee of the University Hospital and Faculty of Medicine and Dentistry, Palacky University, Olomouc and all patients signed written informed consent. Fibroblasts were used between the 2nd and 4th passage. For all experiments the fibroblasts were seeded onto 6-well plates at a density of 0.5×10^5 cells/cm^2 of cultivation medium (DMEM supplemented with fetal calf serum (10%, v/v), penicillin (100 mg/ml) and streptomycin (100 U/ml)).
Test compounds included 6-(tetrahydrofuran-2-ylmethylamino)-9-(tetrahydrofuran-2-yl)purine and positive control (rosmarinic acid). […] Intensity of UVB radiation was evaluated before each irradiation by UVB-meter. […] After 4 hours (37° C., 5% CO2) cell damage was evaluated by analysis of caspase-3 activity.
Caspase-3 activity was evaluated by specific substrate (Ac-DEVD-AMC). […] Fluorescence was measured at (400/505 nm) after 1 hour incubation (37° C., dark). Protein content was analyzed spectrophotometrically by Bradford protein assay (INFINITE M200, Tecan, Switzerland). […]

[3] = test system: GSH depletion; test: UVA-induced GSH depletion in NHDF (DTNB)
From the text: as §1, §2
GSH levels in NHDF were evaluated by reaction with 5,5′-Dithiobis(2-nitrobenzoic acid) (DTNB). […] Absorbance was measured at 412 nm. Protein content was analyzed spectrophotometrically by Lowry's method at 680 nm.
Activity of test compounds (not irradiated) in analyzed parameters were evaluated by comparison of experimental data according to the following equation: […]

[4] = non-irradiated NHDF, 2.5-20 μmol/l

## c1nc(NCC2CCCO2)c2ncn(C3CCCO3)c2n1 (stereo not drawn) [Compound 1, 6-(tetrahydrofuran-2-ylmethylamino)-9-(tetrahydrofuran-2-yl)purine]
[1]; UVA, NHDF
  protection against production of ROS in comparison with rosmarinic acid (in words): more effective
[1]; [4]
  effect on ROS production in non-irradiated cells (in words): did not showed negative effect
[2]; UVB, NHDF
  effect on UVB-induced activity of caspase-3 (in words): decreased
[2]; [4]
  effect on caspase-3 activity in non-irradiated cells (in words): did not showed negative effect
[3]; UVA, NHDF
  protection against GSH depletion in comparison with rosmarinic acid (in words): less effective
[3]; [4]
  effect on GSH level in non-irradiated cells (in words): did not showed negative effect
